Experimental data from paper PMC7794376 (Nature Communications, 2021).
≈ marks a conversion by molar mass, not a printed value. Read-outs that look alike come from different tables or passages of the source.

How the values were obtained:
[1] = biological target: T1, MtbCoaBC (Mycobacterium tuberculosis, UniProt P9WNZ1); experiment: biochemical; format: biochemical; details: for activity at 0.03125 µM / activity at 0.0625 µM / activity at 0.25 µM / activity at 0.5 µM / activity at 1 µM / activity at 2 µM: relative to average DMSO CT; for Activity R1 / Activity R3: slope of absorbance at 360 nm vs time (s)
T1 sequence (P9WNZ1 whole entry): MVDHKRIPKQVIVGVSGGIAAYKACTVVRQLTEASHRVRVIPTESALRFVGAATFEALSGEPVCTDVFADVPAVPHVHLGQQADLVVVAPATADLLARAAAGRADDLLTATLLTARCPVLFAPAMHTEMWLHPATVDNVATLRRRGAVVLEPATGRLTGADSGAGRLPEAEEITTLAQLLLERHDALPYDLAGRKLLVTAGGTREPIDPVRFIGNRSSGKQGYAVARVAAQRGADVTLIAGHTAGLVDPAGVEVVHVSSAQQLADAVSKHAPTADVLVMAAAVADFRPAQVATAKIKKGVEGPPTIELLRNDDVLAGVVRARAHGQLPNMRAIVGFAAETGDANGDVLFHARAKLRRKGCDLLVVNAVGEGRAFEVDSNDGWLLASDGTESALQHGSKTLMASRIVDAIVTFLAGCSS

[2] = biological target: T1, MtbCoaBC; experiment: High-throughput end-point pyrophosphate quantification assay (Biomol Green); format: biochemical; details: MtbCoaB activity; end-point, 2 µM CTP, 40 µM L-cysteine, 30 µM PPA; read-out: IC50 biomol green assay
[3] = system: M. tuberculosis H37Rv; experiment: MIC determination in different media; format: cell-based; details: Mycobacterium tuberculosis, read-out: Minimum inhibitory concentration (MIC)

## O=c1cc(-c2ccc(O)cc2)oc2c(O)c(O)ccc12 [2e]
[1]; 0.03125 uM 2e, replicate R1, read-out: Inhibition % R1
  inhibition at 0.03125 µM: 5.66%
[1]; 0.03125 uM 2e, replicate R1, read-out: Activity % R1
  activity at 0.03125 µM: 94.3%
[1]; 0.03125 uM 2e, replicate R1
  Activity R1: 0.0001715
[1]; 0.03125 uM 2e, replicate R2, read-out: Inhibition % R2
  inhibition at 0.03125 µM: 2.73%
[1]; 0.03125 uM 2e, replicate R2, read-out: Activity % R2
  activity at 0.03125 µM: 97.3%
[1]; 0.03125 uM 2e, replicate R3, read-out: Inhibition % R3
  inhibition at 0.03125 µM: 8.32%
[1]; 0.03125 uM 2e, replicate R3, read-out: Activity % R3
  activity at 0.03125 µM: 91.7%
[1]; 0.03125 uM 2e, replicate R3
  Activity R3: 0.0001667
[1]; 0.0625 uM 2e, replicate R1, read-out: Inhibition % R1
  inhibition at 0.0625 µM: 10.7%
[1]; 0.0625 uM 2e, replicate R1, read-out: Activity % R1
  activity at 0.0625 µM: 89.3%
[1]; 0.0625 uM 2e, replicate R1
  Activity R1: 0.0001624
[1]; 0.0625 uM 2e, replicate R2, read-out: Inhibition % R2
  inhibition at 0.0625 µM: 12.6%
[1]; 0.0625 uM 2e, replicate R2, read-out: Activity % R2
  activity at 0.0625 µM: 87.4%
[1]; 0.0625 uM 2e, replicate R3, read-out: Inhibition % R3
  inhibition at 0.0625 µM: 12.3%
[1]; 0.0625 uM 2e, replicate R3, read-out: Activity % R3
  activity at 0.0625 µM: 87.7%
[1]; 0.0625 uM 2e, replicate R3
  Activity R3: 0.0001594
[1]; 0.25 uM 2e, replicate R1, read-out: Inhibition % R1
  inhibition at 0.25 µM: 38.7%
[1]; 0.25 uM 2e, replicate R1, read-out: Activity % R1
  activity at 0.25 µM: 61.3%
[1]; 0.25 uM 2e, replicate R1
  Activity R1: 0.0001114
[1]; 0.25 uM 2e, replicate R2, read-out: Inhibition % R2
  inhibition at 0.25 µM: 33.5%
[1]; 0.25 uM 2e, replicate R2, read-out: Activity % R2
  activity at 0.25 µM: 66.5%
[1]; 0.25 uM 2e, replicate R3, read-out: Inhibition % R3
  inhibition at 0.25 µM: 37.4%
[1]; 0.25 uM 2e, replicate R3, read-out: Activity % R3
  activity at 0.25 µM: 62.6%
[1]; 0.25 uM 2e, replicate R3
  Activity R3: 0.0001138
[1]; 0.5 uM 2e, replicate R1, read-out: Inhibition % R1
  inhibition at 0.5 µM: 54.7%
[1]; 0.5 uM 2e, replicate R1, read-out: Activity % R1
  activity at 0.5 µM: 45.3%
[1]; 0.5 uM 2e, replicate R1
  Activity R1: 0.000082371
[1]; 0.5 uM 2e, replicate R2, read-out: Inhibition % R2
  inhibition at 0.5 µM: 61.3%
[1]; 0.5 uM 2e, replicate R2, read-out: Activity % R2
  activity at 0.5 µM: 38.7%
[1]; 0.5 uM 2e, replicate R3, read-out: Inhibition % R3
  inhibition at 0.5 µM: 57.9%
[1]; 0.5 uM 2e, replicate R3, read-out: Activity % R3
  activity at 0.5 µM: 42.1%
[1]; 0.5 uM 2e, replicate R3
  Activity R3: 0.000076593
[1]; 1 uM 2e, replicate R1, read-out: Inhibition % R1
  inhibition at 1 µM: 69.6%
[1]; 1 uM 2e, replicate R1, read-out: Activity % R1
  activity at 1 µM: 30.4%
[1]; 1 uM 2e, replicate R1
  Activity R1: 0.000055348
[1]; 1 uM 2e, replicate R2, read-out: Inhibition % R2
  inhibition at 1 µM: 78.2%
[1]; 1 uM 2e, replicate R2, read-out: Activity % R2
  activity at 1 µM: 21.8%
[1]; 1 uM 2e, replicate R3, read-out: Inhibition % R3
  inhibition at 1 µM: 75.2%
[1]; 1 uM 2e, replicate R3, read-out: Activity % R3
  activity at 1 µM: 24.8%
[1]; 1 uM 2e, replicate R3
  Activity R3: 0.000045005
[1]; 2 uM 2e, replicate R1, read-out: Inhibition % R1
  inhibition at 2 µM: 96.5%
[1]; 2 uM 2e, replicate R1, read-out: Activity % R1
  activity at 2 µM: 3.46%
[1]; 2 uM 2e, replicate R1
  Activity R1: 0.000006285
[1]; 2 uM 2e, replicate R2, read-out: Inhibition % R2
  inhibition at 2 µM: 91.3%
[1]; 2 uM 2e, replicate R2, read-out: Activity % R2
  activity at 2 µM: 8.65%
[1]; 2 uM 2e, replicate R3, read-out: Inhibition % R3
  inhibition at 2 µM: 93%
[1]; 2 uM 2e, replicate R3, read-out: Activity % R3
  activity at 2 µM: 6.96%
[1]; 2 uM 2e, replicate R3
  Activity R3: 0.000012661
[1]; read-out: IC50 EnzChek MtbCoaBC
  IC50: 3000 ± 200 nM
[2]
  IC50: 2200 nM
[3]; 7H9/ADC/Glycerol
  MIC: > 250 µM
[3]; GAST/Fe
  MIC: 125 µM (≈ 33.8 µg/mL)
